For six molecules, MIC results are on record in US4129737A, “Process for the preparation of an 8-alkyl-5-oxo-5,8-dihydro-pyrido(2,3-d)pyrimidine-6-carboxylic acid” (priority 1972, dated 1978).

Each structure is given as a SMILES string. Converted amounts (≈) assume the structure as drawn. Where two headings read alike, the source gives them in different places.

What all share (format): cell-based
The subject of assay [1] is B. subtilis. The experiment in a line: Minimum inhibitory concentration by agar dilution, B. subtilis. To be noted: Bacillus subtilis. As for the experimental part: (§1) (a) Trypticase soya medium (T.S.A.), which is very suitable for culturing the majority of microorganisms; it has the following composition:
(§2) (b) Ordinarily nutrient agar (N.A.), which is less rich in nutrients, corresponds to the following formulation: […]
(§3) Table I gives the minimum inhibitory concentrations (expressed in μg/cm^3) for the various microorganisms tested on each medium.
(§4) The products were tested on three Gram positive microorganisms (1 to 3) […] and on 10 Gram negative microorganisms (4 to 13).
(§5) Table (II) gives the minimum inhibitory concentrations of the compounds of Examples XII to XVI, determined on the agar medium, N.A., and expressed in μg/cm^3.

Assay [2] relates to Pr. mirabilis. The experiment in a line: Minimum inhibitory concentration by agar dilution, Pr. mirabilis. To be noted: Proteus mirabilis. The procedure: as §1, §2, §3, §4, §5
(In general: Agar dilution tests growth on a series of plates holding different concentrations.)

The test system of assay [3] is Staphylococcus 209 P. The experiment in a line: Minimum inhibitory concentration by agar dilution, Staphylococcus 209 P. The procedure: as §1, §2, §3, §4, §5
The subject of assay [4] is Pr. morganii. Kind of assay: Minimum inhibitory concentration by agar dilution, Pr. morganii. To be noted: Morganella morganii. The procedure:
as §1, §2, §3, §4, §5

The subject of assay [5] is Pr. vulgaris. The experiment in a line: Minimum inhibitory concentration by agar dilution, Pr. vulgaris. To be noted: Proteus vulgaris. As for the experimental part:
as §1, §2, §3, §4, §5

In assay [6] the test system is Bord. bronchiseptica. Kind of assay: Minimum inhibitory concentration by agar dilution, Bord. bronchiseptica. To be noted: Bordetella bronchiseptica. The procedure:
as §1, §2, §3, §4, §5

Assay [7] deals with Sh. sonnei. Kind of assay: Minimum inhibitory concentration by agar dilution, Sh. sonnei. To be noted: Shigella sonnei. The procedure: as §1, §2, §3, §4, §5
Assay [8] relates to Klebs. pneumoniae. The experiment in a line: Minimum inhibitory concentration by agar dilution, Klebs. pneumoniae. To be noted: Klebsiella pneumoniae. The procedure: as §1, §2, §3, §4, §5
For assay [9], the system named is Esch. Coli 95. The experiment in a line: Minimum inhibitory concentration by agar dilution, Esch. Coli 95. To be noted: Escherichia coli. The procedure: as §1, §2, §3, §4, §5
Assay [10] relates to B. pyocyaneus A22. The experiment in a line: Minimum inhibitory concentration by agar dilution, B. pyocyaneus A22. To be noted: Pseudomonas aeruginosa. The procedure: as §1, §2, §3, §4, §5
For assay [11], the system named is Streptococcus. Kind of assay: Minimum inhibitory concentration by agar dilution, Streptococcus Group A. As for the experimental part: as §1, §2, §3, §4, §5
Assay [12] relates to Salm. typhi. Kind of assay: Minimum inhibitory concentration by agar dilution, Salm. typhi. To be noted: Salmonella enterica, 18 h. As for the experimental part: as §1, §2, §3, §4, §5
Assay [13] has as its system B. pyocyaneus TUR. The experiment in a line: Minimum inhibitory concentration by agar dilution, B. pyocyaneus TUR. To be noted: Pseudomonas aeruginosa, 37° C., 18 hours. As for the experimental part: as §1, §2, §3, §4
Setting [14] is: 18 h, agar medium, N.A., Table II, read-out: minimum inhibitory concentration.
Setting [15] is: 18 h, read-out: minimum inhibitory concentration.
[16] abbreviates: 18 h, agar medium, N.A., Table II (Staphylococcus 20 P [sic]), read-out: minimum inhibitory concentration.
Where [17] appears, read: A22, 18 h, agar medium, N.A., Table II, read-out: minimum inhibitory concentration.
The mark [18] stands for this setting: read-out: minimum inhibitory concentration.
Setting [19] is: 18 h, pH 6.8, read-out: minimum inhibitory concentration (M.I.C.).
Setting [20] is: T.S.A. (trypticase soya medium, pH 7.3), 37° C., 18 hours, read-out: minimum inhibitory concentration (M.I.C.).
Setting [21] is: N.A. (nutrient agar, pH 6.8), 37° C., 18 hours, Table I, read-out: minimum inhibitory concentration (M.I.C.).

On to `CCn1cc(C(=O)O)c(=O)c2cnc(N3CCN(Cc4ccc(Cl)cc4)CC3)nc21` [XV, 2-(4'-p-Chlorobenzyl-piperazino)-5-oxo-8-ethyl-5,8-dihydro-pyrido(2,3-d)pyrimidine-6-carboxylic acid], for which the MIC in [1] (setting [14]) is 1.6 µg/mL (≈ 3.74 µM); in assay [2] (setting [15]) it was 12.5 µg/mL (≈ 29.2 µM); in assay [3] (setting [16]) it was 0.8 µg/mL (≈ 1.87 µM); in assay [4] (setting [14]), 6.2 µg/mL (≈ 14.5 µM); in assay [5] (setting [15]), 12.5 µg/mL (≈ 29.2 µM); in assay [6] (setting [14]), 3.1 µg/mL (≈ 7.24 µM). Besides, the MIC in [7] (setting [14]) is 1.6 µg/mL (≈ 3.74 µM); in assay [8] (setting [14]), 0.8 µg/mL (≈ 1.87 µM); in assay [9] (setting [14]) it was 100 µg/mL (≈ 234 µM); in [10] (setting [17]) it was 50 µg/mL (≈ 117 µM); in assay [11] (setting [14]), 1.6 µg/mL (≈ 3.74 µM); in assay [12] (setting [18]), 12.5 µg/mL (≈ 29.2 µM).

For `CCCN1CCN(c2ncc3c(=O)c(C(=O)O)cn(CC)c3n2)CC1` [XIII, 2-(4'-Propyl-piperazino)-5-oxo-8-ethyl-5,8-dihydro-pyrido(2,3-d)pyrimidine-6-carboxylic acid], the MIC in assay [1] (setting [14]) came to 3.1 µg/mL (≈ 8.98 µM); in assay [2] (setting [15]), 12.5 µg/mL (≈ 36.2 µM); in [3] (setting [16]) it was 6.2 µg/mL (≈ 18 µM); in assay [4] (setting [14]), 6.2 µg/mL (≈ 18 µM); in [5] (setting [14]) it was 6.2 µg/mL (≈ 18 µM); in assay [6] (setting [15]) it was 12.5 µg/mL (≈ 36.2 µM). Also, the MIC stood at 1.6 µg/mL (≈ 4.63 µM) in assay [7] (setting [14]); 1.6 µg/mL (≈ 4.63 µM) in assay [8] (setting [14]); 50 µg/mL (≈ 145 µM) in assay [9] (setting [14]); 100 µg/mL (≈ 290 µM) in assay [10] (setting [17]); 6.2 µg/mL (≈ 18 µM) in assay [11] (setting [14]); 12.5 µg/mL (≈ 36.2 µM) in assay [12] (setting [18]).

`CCN1CCN(c2ncc3c(=O)c(C(=O)O)cn(CC)c3n2)CC1` [Example XII, 2-(4'-Ethyl-piperazino)-5-oxo-8-ethyl-5,8-dihydro-pyrido(2,3-d)pyrimidine-6-carboxylic acid]: the MIC in assay [1] (setting [14]) came out at 100 µg/mL (≈ 302 µM); in [2] (setting [14]) it was 6.2 µg/mL (≈ 18.7 µM); in assay [3] (setting [16]), 1.6 µg/mL (≈ 4.83 µM); in [4] (setting [14]), 0.8 µg/mL (≈ 2.41 µM); in assay [5] (setting [14]), 0.8 µg/mL (≈ 2.41 µM); in [6] (setting [14]) it was 100 µg/mL (≈ 302 µM). In addition, the MIC in assay [7] (setting [14]) worked out at 0.8 µg/mL (≈ 2.41 µM); in [8] (setting [14]) it was 0.4 µg/mL (≈ 1.21 µM); in [9] (setting [14]) it was 0.8 µg/mL (≈ 2.41 µM); in assay [10] (setting [17]), 100 µg/mL (≈ 302 µM); in assay [11] (setting [14]), 3.1 µg/mL (≈ 9.35 µM); in [12] (setting [18]), 0.8 µg/mL (≈ 2.41 µM).

Take `C=CCN1CCN(c2ncc3c(=O)c(C(=O)O)cn(CC)c3n2)CC1` [XIV, 2-(4'-Allyl-piperazino)-5-oxo-8-ethyl-5,8-dihydro-pyrido(2,3-d)pyrimidine-6-carboxylic acid]: the MIC in assay [1] (setting [14]) was 3.1 µg/mL (≈ 9.03 µM); in assay [2] (setting [14]) it was 6.2 µg/mL (≈ 18.1 µM); in assay [3] (setting [16]), 3.1 µg/mL (≈ 9.03 µM); in [4] (setting [14]), 1.6 µg/mL (≈ 4.66 µM); in [5] (setting [14]) it was 3.1 µg/mL (≈ 9.03 µM); in assay [6] (setting [14]), 3.1 µg/mL (≈ 9.03 µM). The MIC in assay [7] (setting [14]) is 0.8 µg/mL (≈ 2.33 µM); in assay [8] (setting [14]), 0.4 µg/mL (≈ 1.16 µM); in assay [9] (setting [14]) it was 50 µg/mL (≈ 146 µM); in [10] (setting [17]), 25 µg/mL (≈ 72.8 µM); in [11] (setting [14]) it was 1.6 µg/mL (≈ 4.66 µM); in assay [12] (setting [18]), 3.1 µg/mL (≈ 9.03 µM).

For the molecule `CCn1cc(C(=O)O)c(=O)c2cnc(N3CCN(Cc4ccc(OC)cc4)CC3)nc21` [XVI, 2-(4'-p-Methoxybenzyl-piperazino)-5-oxo-8-ethyl-5,8-dihydro-pyrido(2,3-d)pyrimidine-6-carboxylic acid], the MIC was 50 µg/mL (≈ 118 µM) in assay [1] (setting [14]); 12.5 µg/mL (≈ 29.5 µM) in assay [2] (setting [14]); 0.4 µg/mL (≈ 0.945 µM) in assay [3] (setting [16]); 1.6 µg/mL (≈ 3.78 µM) in [4] (setting [14]); 6.2 µg/mL (≈ 14.6 µM) in [5] (setting [14]); 12.5 µg/mL (≈ 29.5 µM) in assay [6] (setting [14]). For the same molecule, the MIC in [7] (setting [14]) was 0.8 µg/mL (≈ 1.89 µM); in [8] (setting [14]), 0.2 µg/mL (≈ 0.472 µM); in assay [9] (setting [14]) it was 3.1 µg/mL (≈ 7.32 µM); in assay [10] (setting [17]), 12.5 µg/mL (≈ 29.5 µM); in assay [11] (setting [14]), 0.8 µg/mL (≈ 1.89 µM); in [12] (setting [18]), 1.6 µg/mL (≈ 3.78 µM).

`Cn1cc(C(=O)O)c(=O)c2cnc(N3CCN(CCO)CC3)nc21` [Example XI, 2-(4'-β-Hydroxyethyl-piperazino)-5-oxo-8-methyl-5,8-dihydropyrido(2,3-d)pyrimidine-6-carboxylic acid]: the MIC in assay [13] (N.A. (nutrient agar, pH 6.8), Table I) is 100 µg/mL (≈ 300 µM); in assay [13] (T.S.A. (trypticase soya medium, pH 7.3), read-out: minimum inhibitory concentration (M.I.C.)), above 100 µg/mL; in assay [1] (setting [19]), 12.5 µg/mL (≈ 37.5 µM); in assay [1] (setting [20]), 100 µg/mL (≈ 300 µM); in assay [2] (setting [21]), 6.2 µg/mL (≈ 18.6 µM); in assay [2] (setting [20]) it was 25 µg/mL (≈ 75 µM). In addition, the MIC in assay [3] (Staphylococcus, N.A. (nutrient agar, pH 6.8), 37° C., 18 hours, Table I, read-out: minimum inhibitory concentration (M.I.C.)) is 25 µg/mL (≈ 75 µM); in assay [3] (Staphylococcus, T.S.A. (trypticase soya medium, pH 7.3), 37° C., 18 hours, read-out: minimum inhibitory concentration (M.I.C.)), above 100 µg/mL; in assay [4] (setting [21]), 3.1 µg/mL (≈ 9.3 µM); in assay [4] (setting [20]), 25 µg/mL (≈ 75 µM); in [5] (setting [21]), 25 µg/mL (≈ 75 µM); in assay [5] (setting [20]) it was 50 µg/mL (≈ 150 µM). Further, the MIC turned out to be 12.5 µg/mL (≈ 37.5 µM) in [6] (setting [19]); 100 µg/mL (≈ 300 µM) in assay [6] (setting [20]); 1.6 µg/mL (≈ 4.8 µM) in assay [7] (setting [21]); 12.5 µg/mL (≈ 37.5 µM) in [7] (setting [20]); 12.5 µg/mL (≈ 37.5 µM) in assay [8] (18 h, pH 7.3, read-out: minimum inhibitory concentration (M.I.C.)); 3.1 µg/mL (≈ 9.3 µM) in assay [8] (setting [21]). Besides, the MIC was 1.6 µg/mL (≈ 4.8 µM) in assay [9] (setting [21]); 25 µg/mL (≈ 75 µM) in [9] (setting [20]); 100 µg/mL (≈ 300 µM) in assay [10] (A22, N.A. (nutrient agar, pH 6.8), 37° C., 18 hours, Table I, read-out: minimum inhibitory concentration (M.I.C.)); above 100 µg/mL in assay [10] (A22, T.S.A. (trypticase soya medium, pH 7.3), 37° C., 18 hours, read-out: minimum inhibitory concentration (M.I.C.)); 25 µg/mL (≈ 75 µM) in [11] (setting [21]); above 100 µg/mL in assay [11] (setting [20]). Besides, the MIC in [12] (pH 6.8, read-out: minimum inhibitory concentration (M.I.C.)) worked out at 6.2 µg/mL (≈ 18.6 µM); in assay [12] (pH 7.3, read-out: minimum inhibitory concentration (M.I.C.)) it was 50 µg/mL (≈ 150 µM).
